“Also recorded” adds a separate entry of the source.
Legend:
[1] = test system: MEIS1 mRNA in MV4; 11 cells; assay: Test 3: inhibition of mRNA transcription, MEIS1; assay type: cell-based; conditions: for mRNA transcription inhibition activity (in words): MEIS1 and HOXA9, MV4, summary of Test 3
Protocol: (§1) Test 3: Test for the Inhibition of mRNA Transcription with Test Compounds
(§2) MV4; 11 cells were obtained from American Type Culture Collection (ATCC). […] After the incubation, the total RNA was extracted from the cells with RNeasy™ Mini Kit (QIAGEN, 74106), and cDNA was synthesized with Superscript™ VILO™ cDNA Synthesis Kit (Invitrogen, #11754250). By using TaqMan™ Gene Expression Master Mix (Applied Biosystems, 4369016) and TaqMan™ probe (Applied Biosystems), the expression level of mRNA was quantified from the obtained cDNA with 7900HT (Applied Biosystems). The expression level of each obtained gene (MEIS1 and HOXA9) was fitted with the expression level of mRNA of GAPDH.

[2] = target: hERG (human Ether-a-go-go Related Gene) (Homo sapiens (Human), UniProt Q12809); assay: Test 4: hERG inhibition (QPatch HT); conditions: for gap between RS4; 11 proliferation IC50 and hERG current IC50: summary of Test 4 table; for hERG/RS4; 11: hERG IC50 divided by RS4, 11 proliferation IC50; for IC50: read-out: hERG inhibition IC50, CHO cell strain stably expressing hERG
[3] = test system: RS4; 11 cells; assay: Test 2: inhibition of cell proliferation, RS4; 11; assay type: cell-based; conditions: for cell proliferation inhibition activity (in words): summary of Test 2 (RS4; 11 and MOLM-13)
Protocol: (§3) Test for Evaluating the Inhibition of Cell Proliferation RS4; 11 cells were obtained from American Type Culture Collection (ATCC). […] MOLM-13 cells were separately obtained from DSMZ (Deutsche Sammlung von Mikroorganismen und Zeilkulturen GmbH). […] The cells were plated to a 96-well plate in 2000 cells/well, each test compound was added thereto to adjust the final concentration of DMSO to 0.1% of DMSO, and the cells were cultured for 7 days. After the cultivation, the cell viability was calculated with PrestoBlue™ Cell Viability Reagent (Invitrogen, A13261).

[4] = test system: MOLM-13 cells; assay: Test 2: inhibition of cell proliferation, MOLM-13; assay type: cell-based; conditions: cultured 7 days, PrestoBlue
Protocol: as §3

[5] = target: Menin-MLL binding (His-Menin1-615, MLL1-172-FLAG) (Homo sapiens (Human), UniProt O00255); assay: Test 1: inhibition of the Menin-MLL binding (HTRF); conditions: summary of Test 1 table
Protocol: Test 1: Test for Evaluating the Inbinition of the Menin-MLL Binding
After the incubation, the signal was detected with RUBYstar (BMG LABTECH).

[6] = test system: HOXA9 mRNA in MV4; 11 cells; assay: Test 3: inhibition of mRNA transcription, HOXA9; assay type: cell-based; conditions: 20 to 24 hours, fitted with GAPDH
Protocol: as §1, §2

Sequence of Menin-MLL binding (His-Menin1-615, MLL1-172-FLAG) (O00255 other isoform, or with tags, fused parts or gaps): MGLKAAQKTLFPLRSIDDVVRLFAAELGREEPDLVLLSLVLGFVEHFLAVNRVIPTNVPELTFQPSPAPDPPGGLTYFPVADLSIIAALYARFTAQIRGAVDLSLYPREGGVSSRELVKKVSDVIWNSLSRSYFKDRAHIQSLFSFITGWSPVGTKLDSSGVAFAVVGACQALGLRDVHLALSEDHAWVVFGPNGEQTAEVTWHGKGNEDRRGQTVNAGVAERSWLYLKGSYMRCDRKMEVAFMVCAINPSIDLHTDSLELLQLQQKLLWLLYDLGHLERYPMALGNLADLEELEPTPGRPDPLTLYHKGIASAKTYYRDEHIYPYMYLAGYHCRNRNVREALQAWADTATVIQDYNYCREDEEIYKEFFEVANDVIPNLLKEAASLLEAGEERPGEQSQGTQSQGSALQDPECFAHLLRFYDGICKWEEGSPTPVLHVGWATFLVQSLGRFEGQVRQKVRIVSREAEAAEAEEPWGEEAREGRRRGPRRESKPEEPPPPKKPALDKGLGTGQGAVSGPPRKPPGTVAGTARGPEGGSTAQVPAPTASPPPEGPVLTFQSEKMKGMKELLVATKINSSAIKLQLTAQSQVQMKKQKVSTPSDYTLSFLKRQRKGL
Sequence of hERG (human Ether-a-go-go Related Gene) (Q12809 whole entry): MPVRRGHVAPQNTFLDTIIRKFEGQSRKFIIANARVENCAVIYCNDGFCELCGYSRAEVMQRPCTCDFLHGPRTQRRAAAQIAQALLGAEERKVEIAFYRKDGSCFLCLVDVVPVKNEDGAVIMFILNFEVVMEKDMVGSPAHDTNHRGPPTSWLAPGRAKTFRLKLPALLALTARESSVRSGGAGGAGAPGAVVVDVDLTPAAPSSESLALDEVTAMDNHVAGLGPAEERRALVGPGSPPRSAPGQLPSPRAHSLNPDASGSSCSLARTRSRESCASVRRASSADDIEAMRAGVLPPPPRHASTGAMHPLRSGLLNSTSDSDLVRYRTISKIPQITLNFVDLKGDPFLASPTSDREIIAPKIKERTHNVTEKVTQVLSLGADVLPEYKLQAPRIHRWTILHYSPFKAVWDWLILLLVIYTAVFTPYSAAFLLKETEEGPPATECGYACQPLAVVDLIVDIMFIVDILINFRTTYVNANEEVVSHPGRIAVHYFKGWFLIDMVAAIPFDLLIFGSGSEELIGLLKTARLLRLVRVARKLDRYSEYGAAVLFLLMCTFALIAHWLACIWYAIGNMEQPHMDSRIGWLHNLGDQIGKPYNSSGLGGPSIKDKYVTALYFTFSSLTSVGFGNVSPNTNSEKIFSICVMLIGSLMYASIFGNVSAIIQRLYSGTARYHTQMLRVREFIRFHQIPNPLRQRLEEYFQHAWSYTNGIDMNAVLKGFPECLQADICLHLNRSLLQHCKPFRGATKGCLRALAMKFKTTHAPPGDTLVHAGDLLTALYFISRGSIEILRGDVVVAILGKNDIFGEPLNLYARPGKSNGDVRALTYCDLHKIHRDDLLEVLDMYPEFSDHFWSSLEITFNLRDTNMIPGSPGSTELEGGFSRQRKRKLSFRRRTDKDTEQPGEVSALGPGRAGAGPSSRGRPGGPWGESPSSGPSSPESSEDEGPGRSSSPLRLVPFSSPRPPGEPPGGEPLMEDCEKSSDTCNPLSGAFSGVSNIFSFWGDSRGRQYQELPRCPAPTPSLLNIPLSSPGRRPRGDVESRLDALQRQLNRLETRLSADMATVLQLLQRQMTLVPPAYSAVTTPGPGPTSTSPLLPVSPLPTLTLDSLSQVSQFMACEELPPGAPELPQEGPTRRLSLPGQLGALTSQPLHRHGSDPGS

Row | Molecule | mRNA transcription inhibition activity (in words) [1] | gap between RS4; 11 proliferation IC50 and hERG current IC50 [2] | cell proliferation inhibition activity (in words) [3] | Menin-MLL binding inhibition activity (in words) [5] | also measured
1 | C=C1C[C@@H]2CC[C@H]1[C@@H](C(=O)N1CCC3(CC1)CN(c1ncncc1Oc1ccc(F)cc1C(=O)N(C(C)C)C(C)C)C3)N2 [Example 6, 5-Fluoro-2-[(4-{7-[(1S,3S,4R)-5-methylidene-2-azabicyclo[2.2.2]octane-3-carbonyl]-2,7-diazaspiro[3.5]nonan-2-yl}pyrimidin-5-yl)oxy]-N,N-di(propan-2-yl)benzamide] | showed the mRNA transcription inhibition activity |  |  |  | 
2 | CC(C)N(C(=O)c1cc(F)ccc1Oc1cncnc1N1CC2(CCN(C(=O)[C@H]3N[C@H]4CC[C@@H]3C(=O)C4)CC2)C1)C(C)C [Example 12, 5-fluoro-2-[(4-{7-[(1S,3S,4S)-5-oxo-2-azabicyclo[2.2.2]octane-3-carbonyl]-2,7-diazaspiro[3.5]nonan-2-yl}pyrimidin-5-yl)oxy]-N,N-di(propan-2-yl)benzamide] |  | more than 100 fold |  |  | 
3 | C=C1C[C@H]2CC[C@@H]1N[C@@H]2C(=O)N1CCC2(CC1)CN(c1ncncc1Oc1ccc(F)cc1C(=O)N(C(C)C)C(C)C)C2 [Example 8, 5-fluoro-2-[(4-{7-[(1S,3S,4R)-6-methylidene-2-azabicyclo[2.2.2]octane-3-carbonyl]-2,7-diazaspiro[3.5]nonan-2-yl}pyrimidin-5-yl)oxy]-N,N-di(propan-2-yl)benzamide] |  | more than 100 fold |  |  | 
4 | CC(C)N(C(=O)c1cc(F)ccc1Oc1cncnc1N1CC2(CCN(C(=O)[C@H]3N[C@H]4CC[C@@H]3[C@H](F)[C@@H]4CC3CC3)CC2)C1)C(C)C [Example 19, 2-[(4-{7-[(1S,3S,4S,5R,6R)-6-(cyclopropylmethyl)-5-fluoro-2-azabicyclo[2.2.2]octane-3-carbonyl]-2,7-diazaspiro[3.5]nonan-2-yl}pyrimidin-5-yl)oxy]-5-fluoro-N,N-di(propan-2-yl)benzamide] |  | more than 100 fold | potent |  | hERG/RS4; 11 [2]: >690
5 | 2-[(4-{7-[(1R,3S,4S)-2-azabicyclo[2.2.1]heptane-3-carbonyl]-2,7-diazaspiro[3.5]nonan-2-yl}pyrimidin-5-yl)oxy]-5-fluoro-N,N-di(propan-2-yl)benzamide [Example 16] |  |  | potent |  | IC50 [4]: 40 nM; IC50 [2]: > 100000 nM
6 | CC(C)N(C(=O)c1cc(F)ccc1Oc1cncnc1N1CC2(CN(C(=O)[C@H]3N[C@H]4CC[C@@H]3[C@@H](F)C4)C2)C1)C(C)C [Example 10, 5-fluoro-2-[(4-{6-[(1S,3S,4S,5S)-5-fluoro-2-azabicyclo[2.2.2]octane-3-carbonyl]-2,6-diazaspiro[3.3]heptan-2-yl}pyrimidin-5-yl)oxy]-N,N-di(propan-2-yl)benzamide] | showed the mRNA transcription inhibition activity | more than 100 fold | potent | particularly potent | 
7 | CC(C)N(C(=O)c1cc(F)ccc1Oc1cncnc1N1CC2(CCN(C(=O)[C@H]3N[C@H]4CC[C@@H]3[C@@H](F)[C@H]4CC3CC3)CC2)C1)C(C)C [Example 14, 2-[(4-{7-[(1S,3S,4S,5S,6S)-6-(cyclopropylmethyl)-5-fluoro-2-azabicyclo[2.2.2]octane-3-carbonyl]-2,7-diazaspiro[3.5]nonan-2-yl}pyrimidin-5-yl)oxy]-5-fluoro-N,N-di(propan-2-yl)benzamide] |  | more than 100 fold | potent |  | IC50 ([3]; Homo sapiens, RS4, 11 cells, cultured 7 days, PrestoBlue): 20 nM; IC50 ([4]; Homo sapiens): 40 nM; hERG/RS4; 11 [2]: 557
8 | CC(C)N(C(=O)c1cc(F)ccc1Oc1cncnc1N1CC2(CCN(C(=O)[C@H]3N[C@H]4CC[C@@H]3C[C@H]4CC3CC3)CC2)C1)C(C)C [Example 4, 2-[(4-{7-[(1S,3S,4R,6R)-6-(cyclopropylmethyl)-2-azabicyclo[2.2.2]octane-3-carbonyl]-2,7-diazaspiro[3.5]nonan-2-yl}pyrimidin-5-yl)oxy]-5-fluoro-N,N-di(propan-2-yl)benzamide] | showed the mRNA transcription inhibition activity | more than 100 fold | potent | potent | 
9 | C=C1C[C@H]2CC[C@@H]1N[C@@H]2C(=O)N1CC2(C1)CN(c1ncncc1Oc1ccc(F)cc1C(=O)N(C(C)C)C(C)C)C2 [Example 9, 5-fluoro-2-[(4-{6-[(1S,3S,4R)-6-methylidene-2-azabicyclo[2.2.2]octane-3-carbonyl]-2,6-diazaspiro[3.3]heptan-2-yl}pyrimidin-5-yl)oxy]-N,N-di(propan-2-yl)benzamide] |  | more than 100 fold |  |  | 
10 | CC(C)N(C(=O)c1cc(F)ccc1Oc1cncnc1N1CC2(CCN(C(=O)[C@H]3N[C@H]4CC[C@@H]3C[C@@H]4CC3CC3)CC2)C1)C(C)C [Example 1, 2-[(4-{7-[(1S,3S,4R,6S)-6-(Cyclopropylmethyl)-2-azabicyclo[2.2.2]octane-3-carbonyl]-2,7-diazaspiro[3.5]nonan-2-yl}pyrimidin-5-yl)oxy]-5-fluoro-N,N-di(propan-2-yl)benzamide] | showed the mRNA transcription inhibition activity | more than 100 fold | potent | potent | 
11 | 2-[(4-{6-[(1R,3S,4S)-2-azabicyclo[2.2.1]heptane-3-carbonyl]-2,6-diazaspiro[3.3]heptan-2-yl}pyrimidin-5-yl)oxy]-5-fluoro-N,N-di(propan-2-yl)benzamide [Example 15] |  |  | potent |  | IC50 [2]: > 100000 nM
12 | 2-[(4-{6-[(1R,3S,4R)-2-azabicyclo[2.2.2]octane-3-carbonyl]-2,6-diazaspiro[3.3]heptan-2-yl}pyrimidin-5-yl)oxy]-5-fluoro-N,N-di(propan-2-yl)benzamide [Example 11] | showed the mRNA transcription inhibition activity | more than 100 fold | potent | potent | mRNA at 1 μM (% control) MEIS1 ([1]; MV4, 1 μM, 20 to 24 hours, fitted with GAPDH): 13.1 % control; mRNA at 1 μM (% control) HOXA9 [6]: 36.5 % control; IC50 [2]: > 10000 nM
13 | CC(C)N(C(=O)c1cc(F)ccc1Oc1cncnc1N1CC2(CN(C(=O)[C@H]3N[C@H]4CC[C@@H]3C[C@@H]4CC3CC3)C2)C1)C(C)C [Example 3, 2-[(4-{6-[(1S,3S,4R,6S)-6-(cyclopropylmethyl)-2-azabicyclo[2.2.2]octane-3-carbonyl]-2,6-diazaspiro[3.3]heptan-2-yl}pyrimidin-5-yl)oxy]-5-fluoro-N,N-di(propan-2-yl)benzamide] | showed the mRNA transcription inhibition activity | more than 100 fold | potent | particularly potent | 
14 | 5-fluoro-2-[(4-{7-[(1S,3S,4R)-5-methylidene-2-azabicyclo[2.2.1]heptane-3-carbonyl]-2,7-diazaspiro[3.5]nonan-2-yl}pyrimidin-5-yl)oxy]-N,N-di(propan-2-yl)benzamide [Example 18] |  |  | potent |  | IC50 [4]: 40 nM; IC50 [2]: 46100 nM
15 | CC(C)N(C(=O)c1cc(F)ccc1Oc1cncnc1N1CC2(CN(C(=O)[C@H]3N[C@H]4CC[C@@H]3C[C@H]4CC3CC3)C2)C1)C(C)C [Example 5, 2-[(4-{6-[(1S,3S,4R,6R)-6-(cyclopropylmethyl)-2-azabicyclo[2.2.2]octane-3-carbonyl]-2,6-diazaspiro[3.3]heptan-2-yl}pyrimidin-5-yl)oxy]-5-fluoro-N,N-di(propan-2-yl)benzamide] | showed the mRNA transcription inhibition activity | more than 100 fold | potent; also recorded: excellent | potent | 

Source: patent publication US11369605B2, “Optically active azabicyclo ring derivative” (priority 2018, dated 2022)
